Data published in US20100075856A1, “METHOD FOR INCREASING THE DRY BIOMASS OF PLANTS” (BASF SE, priority 2006, published 2010).

How the values were obtained:
Format in all cases: in vivo
[1] = tested on: corn of the cultivar DKB 455; assay: Biomass of corn grains, field trial, free disease conditions (example 1.4)
Protocol: (§1) Corn of the cultivar DKB 390 was cultivated under customary conditions (150 kg/ha nitrogen) at Campinas (Brazil) in 2005/2006. One part of the trial was treated with pyraclostrobin (in the form of the commercially available product F500 from BASF; diluted with water to a concentration 0.5 g/l) at the growing stage 34/35 and the other part at GS 55/57 by spraying about 300 l/ha (150 g of active compound per ha). Control plants were treated at GS 35/35 and 55/57, respectively, with a formulation according to that of F500 but without the active compound pyraclostrobin (“blank formulation”). One week prior to the treatment either with the active formulation or with the blank formulation, the plants were treated with epoxiconazole in order to ensure absence of fungal stress. 55 days after the application at GS 55/57, the plants were harvested and the corn grains having a residual moisture content of 14 to 20% by weight, based on the total weight of the grains, were weighed.
The experiments were carried out according to example 1.1, however using corn of the cultivar DKB 455.

[2] = tested on: Soybean of the variety Conquista; assay: Biomass of soybean grains, field trial, disease conditions (example 2.2); conditions: without epoxiconazole pre-treatment, grains 13 to 22% residual moisture
Protocol: (§2) Soybean of the variety Conquista was cultivated under customary conditions at Campinas (Brazil) in 2005/2006. One part of the trial was treated with pyraclostrobin (in the form of the commercially available product F500 from BASF; diluted with water to a concentration of 0.42 g/l) at the growing stage 61/62 and the other part at GS 65/67 by spraying about 350 l/ha (150 g of active compound per ha). Control plants were treated at GS 61/62 and 65/67, respectively, with a formulation according to that of F500 but without the active compound pyraclostrobin (“blank formulation”). One week prior to the treatment either with the active formulation or with the blank formulation, the plants were treated with epoxiconazole in order to ensure absence of fungal stress. 56 days after the application at GS 65/67, the plants were harvested and the soybean grains having a residual moisture content of 13 to 18% by weight, based on the total weight of the grains, were weighed.
The experiments were carried out according to example 2.1, however without the epoxiconazole pre-treatment. The residual moisture content was 13 to 22% by weight, based on the total weight of the grains.

[3] = tested on: Corn of the cultivar DKB 390; assay: Biomass of corn grains, field trial, free disease conditions (example 1.1); conditions: corn DKB 390, 150 g of active compound per ha, spray, epoxiconazole pre-treatment, grains 14 to 20% residual moisture
Protocol: as §1

[4] = tested on: Soybean of the variety Conquista; assay: Biomass of soybean grains, field trial, free disease conditions (example 2.1); conditions: spray, epoxiconazole pre-treatment, grains 13 to 18% residual moisture
Protocol: as §2

[5] = tested on: Corn of the cultivar DKB 390; assay: Biomass of corn grains, field trial, free disease conditions, another field (example 1.3); conditions: corn DKB 390, another field
Protocol: as §1
The experiments were carried out according to example 1.1, however using another field.

[6] = tested on: Corn of the cultivar DKB 390; assay: Biomass of corn grains, field trial, disease conditions (example 1.2); conditions: corn DKB 390, 150 g of active compound per ha, without epoxiconazole pre-treatment, grains 14 to 22% residual moisture
Protocol: as §1
The experiments were carried out according to example 1.1, however without the epoxiconazole pre-treatment. Moreover, the concentration of pyraclostrobin in the spray liquor was 1 g/l and 150 l/ha were sprayed (150 g of active compound per ha). The residual moisture content of the grains was 14 to 22% by weight, based on the total weight of the grains.

[7] = treated at GS 61/62, 150 g of active compound per ha
[8] = treated at GS 65/67, 150 g of active compound per ha

Question: pyraclostrobin was tested. Which Yield ([1]; corn DKB 455, treated at GS 34/35, 150 g of active compound per ha) did it give?
Answer: 8.6 ton/ha

Question: What about the Yield ([1]; corn DKB 455, treated at GS 55/57, 150 g of active compound per ha) of the same substance?
Answer: 9.2 ton/ha

Question: What about the Yield [2, 7] of the same substance?
Answer: 2163 kg/ha

Question: What about the Yield [2, 8] of the same substance?
Answer: 2120 kg/ha

Question: And the Yield ([3]; treated at GS 34/35)?
Answer: 10.4 ton/ha

Question: And the Yield ([3]; treated at GS 55/57)?
Answer: 10.6 ton/ha

Question: What about the Yield [4, 7] of the same substance?
Answer: 2254 kg/ha

Question: What about the Yield [4, 8] of the same substance?
Answer: 2209 kg/ha

Question: What about the Yield ([5]; treated at GS 34/35, 150 g of active compound per ha) of the same substance?
Answer: 8.0 ton/ha

Question: And the Yield ([5]; treated at GS 55/57, 150 g of active compound per ha)?
Answer: 8.3 ton/ha

Question: And the Yield ([6]; treated at GS 34/35)?
Answer: 8.7 ton/ha

Question: And the Yield ([6]; treated at GS 55/57)?
Answer: 8.8 ton/ha
